Data reported in US12275685B2, “Oligo-benzamide analogs and their use in cancer treatment” (Board of Regents, The University of Texas System, priority 2018, dated 2025).

Tests used:
[1] = system: D2A1 xenografts; test: D2A1 syngeneic tumor model; assay type: in vivo, mice; conditions: 10 mg/kg daily
Protocol: FIGS. 35A-P: ERX-41 is potent against TNBC in vivo. (FIG. 35A) Following establishment of subcutaneous MDA-MB-231 xenograft tumors (200 mm^3), 10 mg/kg single dose ERX-41 was administered either by oral or intraperitoneal route. The tumor was harvested 0, 0, 5, 1, 5, 3, 6 and 24 h after drug administration and the drug levels assayed by LC-MS/MS and graphed. (FIGS. 35B-E) Following establishment of MDA-MB-231 xenografts in mammary fat pad in vivo (100 mm^3 size), daily administration of 10 mg/kg ERX-41 or vehicle control (N=8 each group) was initiated. Tumor volumes were measured using digital calipers and graphed (FIG. 35B). Tumor weights (FIG. 35C), body weights (FIG. 35D) and extirpated tumors (FIG. 35E) at end of study are also shown. (FIGS. 35F-H) Following establishment of D2A1 syngeneic xenografts in mammary fat pad in vivo (100 mm^3 size), daily administration of 10 mg/kg ERX-41 or vehicle control (N=8 each group) was initiated. Tumor volumes were measured using digital calipers and graphed (FIG. 35F) along with tumor weights (FIG. 35G) and body weights (FIG. 35H). (FIGS. 35I-P) Effect of ERX-41 on the growth (FIG. 351, FIG. 35K, FIG. 35M, FIG. 35O) and tumor weights (FIG. 35J, FIG. 35L, FIG. 35N, FIG. 35P) of four distinct TNBC PDXs compared to vehicle. *p<0.05. **p<0.01; ***p<0.001. […]

[2] = system: 22 human preclinical TNBC cell line models; test: WST assay in TNBC cell lines; assay type: cell-based; conditions: 22 TNBC cell lines, read-out: IC50, WST assays
Source text: FIGS. 34A-C: Dose response curve of ERX-41 in multiple TNBC. cell lines using WST-1 assays (FIG. 34A) and CellTiter-Glo assays (FIG. 34B). […] Quantification of the number of dead cells over time seen with live cell imaging in MDAMB-231 and HMEC cells is shown.
To evaluate the generalizability of the inventors' findings, they evaluated ERX-41 in a large number of TNBC and ERa-positive cell lines.

[3] = molecular target: T1, LIPA (Homo sapiens, UniProt P38571); test: Biotinylated ERX-41 pulldown; assay type: binding; conditions: WT-LIPA and H274Y MT-LIPA, not DLXXLL or L242P MT-LIPA
T1 construct: expressed in transfected cells; host or cells: SUM-159 cells with LIPA KO, reconstituted with LIPA plasmid constructs
Source text: FIGS. 39A-N: (FIGS. 39A-E) Predicted binding mode of ERX-41 (colored in green) on the human lysosomal acid lipase (LAL, PDB code: 6V7N, LXXLL (SEQ ID NO: 1) domain colored in orange). (FIG. 39F) PDB structure of LAL protein showing relative positions of the catalytic domain (with H274Y MT) and the LXXLL (SEQ ID NO: 1) domain (L242P MT). (FIG. 39G) Evaluation of the effect of ERX-41 and lalistat (known lipase inhibitor) on lipase activity of parental SUM-159 (WT) and SUM-159 cells with LIPA KO. (FIG. 39H) Evaluation of basal lipase activity in parental SUM-159 (WT), SUM-159 cells with LIPA KO (KO), SUM-159 cells with LIPA KO and with reconstitution of either WT LIPA (KO+WT), H274Y MT-LIPA (KO+H274Y), DLXXLL (SEQ ID NO: 2) MT-LIPA (KO+DLXXLL (SEQ ID NO: 2)) or L242P MT-LIPA (KO+L242P). Protein expression of LAL and control vinculin in these cells are shown below (FIG. 391) Cellular lysates from described SUM-159 cells were incubated with biotinylated ERX-11 or biotinylated ERX-41 and then subject to a streptavidin column. Elutants were then evaluated for LIPA pulldown by western blotting. (FIG. 39J) Dose response curve to increasing concentrations of ERX-41 in described SUM-159 cells. (FIGS. 39K-M) Effect of vehicle or 1 μM ERX-41 on induction of UPR genes at the protein level (FIG. 39K) or RNA level (FIGS. 39L-M). […]

T1 sequence (P38571 22-399): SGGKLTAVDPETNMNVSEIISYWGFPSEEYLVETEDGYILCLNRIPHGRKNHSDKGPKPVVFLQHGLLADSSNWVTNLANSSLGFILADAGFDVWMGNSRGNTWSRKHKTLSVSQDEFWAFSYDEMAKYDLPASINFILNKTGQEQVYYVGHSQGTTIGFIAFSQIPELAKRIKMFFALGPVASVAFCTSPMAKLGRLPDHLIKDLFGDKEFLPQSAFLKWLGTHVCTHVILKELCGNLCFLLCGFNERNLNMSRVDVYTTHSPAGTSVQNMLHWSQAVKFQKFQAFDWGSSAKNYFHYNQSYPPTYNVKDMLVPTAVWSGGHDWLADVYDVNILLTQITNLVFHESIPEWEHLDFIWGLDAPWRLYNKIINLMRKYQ

Structure (SMILES): CC(C)COc1cc(C(=O)Nc2ccc(C(=O)N[C@H]3CC[C@H](C)CC3)cc2OCC(C)C)ccc1NC(=O)c1ccc([N+](=O)[O-])c(OCCO)c1 [TK41]
- growth of D2A1 xenografts [1]: significantly reduce the growth
- IC50 [2]: < 500 nM
- interaction with LIPA [3]: direct interaction
